The text below walks through data of patent US6004965A, “Sulfonamides” (Hoffmann-La Roche Inc., priority 1994, dated 1999).

Molecules are shown by their SMILES. pIC50: −log10 of the molar value.

For orientation: pIC50 means the negative decadic logarithm of the IC50, by convention in mol/L.

One assay deals with T1, human ETA receptors (Homo sapiens, UniProt P25101).
T1 construct: made in house; host or cells: baculovirus-infected insect cells (membrane preparation)
T1 sequence (P25101 21-427): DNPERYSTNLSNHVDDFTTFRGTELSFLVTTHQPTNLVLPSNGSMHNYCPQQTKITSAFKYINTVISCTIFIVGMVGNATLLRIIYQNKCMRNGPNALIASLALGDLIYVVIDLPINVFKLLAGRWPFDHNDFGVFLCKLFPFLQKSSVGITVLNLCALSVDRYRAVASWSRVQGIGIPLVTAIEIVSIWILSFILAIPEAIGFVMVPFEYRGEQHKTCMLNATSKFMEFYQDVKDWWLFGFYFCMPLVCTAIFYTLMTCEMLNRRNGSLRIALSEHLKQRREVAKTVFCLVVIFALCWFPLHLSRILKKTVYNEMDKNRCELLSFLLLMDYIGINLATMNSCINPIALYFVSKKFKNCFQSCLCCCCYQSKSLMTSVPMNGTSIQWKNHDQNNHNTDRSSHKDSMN
As to the kind of experiment: Inhibition of endothelin binding to recombinant ETA receptors. The conditions noted are these: baculovirus-insect cell membranes, 20 pM 125I-endothelin, 20° C. for 2 hours or 4° C. for 24 hours, read-out: IC50 (inhibition of specific binding of 125I-endothelin). The procedure: I: […] A cDNA coding for human ETA receptors of human placenta was cloned ([…]. Yang, Y. Furuichi and C. Miyamoto, BBRC 180, 1265-1272) and expressed in the baculovirus-insect cell system. Baculovirus-infected insect cells from a 23 l fermenter are centrifuged off (3000×g, 15 minutes, 4° C.) 60 hours after the infection, re-suspended in Tris buffer (5 mM, pH 7.4, 1 mM MgCl2) and again centrifuged. After a further re-suspension and centrifugation the cells are suspended in 800 ml of the same buffer and […] at -120° C. The cells disintegrate when the suspension in this hypotonic buffer mixture is thawed. After a repeated freeze-drying/thawing cycle the suspension is homogenized and centrifuged (25000×g, 15 minutes, 4° C.). After suspension in Tris buffer (75 mM, pH 7.4, 25 mM MgCl2, 250 mM sucrose) 1 ml aliquots (protein content about 3.5 mg/ml) are stored at -85° C. […] The incubation is carried out at 20° C. for 2 hours or at 4° C. for 24 hours. The separation of free and membrane-bound radio-ligands is carried out by filtration over a glass fibre filter.

Assay [1] deals with T2, endothelin-induced contractions in isolated rat aorta rings (Rattus norvegicus, UniProt P26684).
T2 construct: cut out from the thorax aorta of adult Wistar-Kyoto rats; from tissue; host or cells: thoracic aorta rings of adult Wistar-Kyoto rats, endothelium removed
T2 sequence (P26684 21-426): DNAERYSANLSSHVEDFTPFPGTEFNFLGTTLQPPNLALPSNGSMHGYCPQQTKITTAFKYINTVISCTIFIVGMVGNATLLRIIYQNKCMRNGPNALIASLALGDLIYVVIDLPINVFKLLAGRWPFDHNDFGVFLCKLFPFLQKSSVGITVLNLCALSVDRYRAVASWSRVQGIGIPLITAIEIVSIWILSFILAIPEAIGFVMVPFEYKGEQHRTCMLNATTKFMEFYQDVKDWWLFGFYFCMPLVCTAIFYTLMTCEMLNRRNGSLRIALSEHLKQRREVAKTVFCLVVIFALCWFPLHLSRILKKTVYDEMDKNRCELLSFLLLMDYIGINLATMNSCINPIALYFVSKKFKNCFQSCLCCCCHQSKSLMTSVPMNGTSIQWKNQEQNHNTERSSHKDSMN
As to the kind of experiment: Inhibition of endothelin-induced contractions in isolated rat aorta rings. It is filed as cell-based, rat (Wistar-Kyoto). The conditions noted are these: read-out: pA2 value; Dose ratio (switch to the right) (converted). The protocol:
Rings with a length of 5 mm were cut out from the thorax aorta of adult Wistar-Kyoto rats. The endothelium was removed by lightly rubbing the internal surface. Each ring was immersed at 37° C. in 10 ml of Krebs-Henseleit solution in an isolated bath while gassing with 95% O2 and 5% CO2. The isometric stretching of the rings was measured. The rings were stretched to a pre-tension of 3 g.
The corresponding pA2 value, which is a measure of the activity of the test compound, was calculated using a computer programme according to the following equation from the "dose ratio" DR for each individual dosage-activity curve.
pA2 =log(DR-1)-log(antagonist-concentration)

As to `COc1ccccc1Oc1c(NS(=O)(=O)c2ccc(C(C)(C)C)cc2)nc(-c2ccnc(-c3nnn[nH]3)c2)nc1OCCOC(=O)Nc1ccccn1` [Example 4, 2-[6-(4-tert-butyl-phenylsulphonylamino)-5-(2-methoxy-phenoxy)-2-(2-1H-tetrazol-5-yl-pyridin-4-yl)-pyrimidin-4-yl-oxy]-ethyl pyridin-2-ylcarbamate], at human ETA receptors, the pIC50 was 8.22. In addition, in assay [1], the Kb is 0.251 nM.

Turning to `COc1ccccc1Oc1c(NS(=O)(=O)c2ccc(C)cn2)nc(-c2ccnc(-c3nnn[nH]3)c2)nc1OCCO` [Example 29, 5-methyl-pyridine-2-sulphonic acid 6-(2-hydroxy-ethoxy)-5-(2-methoxy-phenoxy)-2-(2-1H-tetrazol-5-yl-pyridin-4-yl)-pyrimidin-4-ylamide], the pIC50 on human ETA receptors was 8.40. Also, the Kb in assay [1] was 0.1 nM.

Regarding `COc1ccccc1Oc1c(NS(=O)(=O)c2ccccc2)nc(-c2ccnc(-c3nnn[nH]3)c2)nc1OCCOC(=O)Nc1ccccn1` [Example 35, 2-[5-(2-methoxy-phenoxy)-6-phenyl-sulphonylamino-2-(2-1H-tetrazol-5-yl-pyridin-4-yl)-pyrimidin-4-yloxy]-ethyl pyridin-2-ylcarbamate], the pIC50 at human ETA receptors is 8.70. Moreover, the Kb in assay [1] was 0.316 nM.

Turning to `COc1ccccc1Oc1c(NS(=O)(=O)c2ccc(C)cc2)nc(-c2ccnc(-c3nnn[nH]3)c2)nc1OCCOC(=O)Nc1ccccn1` [Example 36, 2-[5-(2-methoxy-phenoxy)-6-(4-methyl-phenylsulphonylamino)-2-(2-1H-tetrazol-5-yl-pyridin-4-yl)-pyrimidin-4-yloxy]-ethyl pyridin-2-ylcarbamate], the pIC50 on human ETA receptors was 8.10. Also, in assay [1], the Kb was 0.398 nM.

Take `COc1ccccc1Oc1c(NS(=O)(=O)c2ccc(SC)cc2)nc(-c2ccnc(-c3nnn[nH]3)c2)nc1OCCOC(=O)Nc1ccccn1` [Example 40, 2-[5-(2-methoxy-phenoxy)-6-(4-methylsulphanylphenylsulphonylamino)-2-(2-1H-tetrazol-5-yl-pyridin-4-yl)-pyrimidin-4-yloxy]-ethyl pyridin-2-ylcarbamate]: at human ETA receptors, the pIC50 is 8.10. For the same compound, the Kb in assay [1] was 0.0631 nM.

With `COc1ccccc1Oc1c(NS(=O)(=O)c2ccc3c(c2)OCO3)nc(-c2ccnc(-c3nnn[nH]3)c2)nc1OCCOC(=O)Nc1ccccn1` [Example 41, 2-[6-(1,3-benzodioxol-5-yl-sulphonylamino)-5-(2-methoxy-phenoxy)-2-(2-1H-tetrazol-5-yl-pyridin-4-yl)-pyrimidin-4-yloxy]-ethyl pyridin-2-ylcarbamate], the pIC50 on human ETA receptors is 9.00. Besides, in assay [1], the Kb is 0.0251 nM.
